Laboratory results as given in patent US20240319209A1, “METHOD FOR QUANTIFYING AHSP PROTEIN AND ITS USE FOR PROGNOSING A HAEMOGLOBIN-RELATED DISORDER” (INSTITUT NATIONAL DE LA SANTÉ ET DE LA RECHERCHE MÉDICALE, priority 2021, published 2024).
Values joined by “and” are separate entries in the source; they are usually repeats but may differ in a detail not shown here. Equal values may be shown once. “Also recorded” adds a separate entry of the source.

Key:
[1] = test system: α-Hb; test: In vitro α-Hb pool measurement in haemolysate (capture on GST-AHSP affinity support); type: in vivo, human; settings: Treated SS patients (HC), n=10, mean ± SD; ng free α-Hb per mg total subunits per mL of lysed RBCs
Protocol: (§1) We centrifuged 4 mL of whole blood from each subject for 5 min at 4° C., with blood samples processed within 2 h of collection. The plasma was gently removed, leaving 3 mm above the RBCs to retain the reticulocytes; the RBCs were washed with 0.15 M NaCl and then frozen at −80° C. They were thawed on ice and lysed with four volumes of cold distilled water, and incubated for 30 min at +4° C., before centrifugation at 16,000×g for 30 min at +4° C. The RBC lysate (haemolysate) was recovered as the supernatant and stored at −80° C.
The α-Hb pool was assessed for the RBC lysates of all subjects (SS patients and controls), by capturing α-Hb subunits on GST-AHSP bound to an affinity chromatography support, as previously described.^15

[2] = test system: AHSP; test: Determination of AHSP concentration in haemolysates by sandwich ELISA; type: in vivo, human
Protocol: as §1
We used high-binding 96-well ELISA plates (COSTAR High Binding ELISA Plates, Corning Incorporated, Corning, NY, USA). Following each step, up to 3,3′,5,5′-tetramethylbenzidine (TMB) addition, the wells were washed three times with 300 μL DPBS-0.05% Tween-20 (DPBS-TWEEN® Tablets, Calbiochem, Millipore Corporation, Burlington, MA, USA). The wells were coated with 100 μL/well anti-Ahsp antibody (EPR12319, diluted 1:1000 in DPBS) as the capture antibody. After 2 h at 37° C., the wells were washed and blocked by incubation for 2 h at 37° C. with 300 μL blocking buffer (0.15% BSA in DPBS). The wells were washed and left to dry in air, covered with SealPlate and stored at 4° C.
Serial dilutions of recombinant AHSP stored in −80° C. were prepared (0.395 to 3 ng/mL) in blocking buffer and added to the plate in duplicate in each assay, for construction of the calibration curve. Diluted recombinant AHSP were added to the coated wells (100 μL/well) and the plates were incubated for 2 h at 37° C. The plates were washed and 100 μL of biotin-conjugated rabbit polyclonal anti-human recombinant Ahsp antibody (Met1-Ser102) (ABIN2615200, Antibodies-online Gmb, Aachen, Germany, diluted 1:255 in blocking buffer), used as the detecting antibody, were added to each well, and the plates were incubated for 1 h at 37° C. The plates were washed five times and the samples were then incubated with 100 μL/well streptavidin-HRP (DY998, R&D Systems, Minneapolis, MN, USA, diluted 1:100 in blocking buffer) for 20 min at 37° C. in the dark. Next steps, washes and incubations, were performed in the dark. The reaction was developed by adding 50 μL/well TMB as a substrate (1-Step™ Ultra TMB-ELISA, Thermo Fisher Scientific). The plates were incubated for 5-10 min, and the reaction was then stopped by adding 50 μL/well 1 N sulfuric acid. Absorbance was measured immediately, at 450 nm (A450), with a microplate reader (Eon™, BioTek Instruments Inc, Winooski, Vermont, USA).
A standard curve was generated with known concentrations and absorbances of the recombinant human AHSP, with the EON microplate reader and Gen5 software.
The haemolysates were diluted 1:1000 in blocking buffer and added (100 μL/well) to the plate coated with the capture antibody. The plates were incubated for 2 h at 37° C., washed and 100 μL of the detecting antibody were added to each well, and then the plates were incubated for 1 h at 37° C. The further procedure is the same as for the AHSP range described above. The AHSP concentrations of the diluted haemolysates were determined by comparison to the standard curve expressed as ng per mL by the microplate reader. All the concentrations of AHSP obtained are the means of four ELISAs. Finally, taking into account the 1000-fold dilution of haemolysates, the final concentrations are reported in μg AHSP per mL of haemolysate.
The inter-subject variabilities were determined by calculating the CVs for four independent measurements of biological AHSP in each haemolysate.

[3] = test system: SS patients; test: Routine clinical and laboratory (haematological and biological) data in SS patients with HC treatment
[4] = HC-treated SS patients, n=10, FIG. 1
[5] = Treated SS patients (HC), n=10, mean ± SD

Structure (SMILES): NC(=O)NO [HC, hydroxycarbamide]
- α-Hb pool [1]: 162 ± 31 ppm
- AHSP concentration, interquartile range (IQR) ([2]; HC-treated SS patients, n=10): 1.26 to 1.76 µg/mL
- AHSP concentration, maximum value [2, 4]: 2.16 μg AHSP per mL of haemolysate
- AHSP concentration, minimum value [2, 4]: 1.18 μg AHSP per mL of haemolysate
- Effect of HC treatment on AHSP concentration in RBCs (in words) ([2]; HC-treated vs untreated SS patients, remained higher than in controls): significantly lower; also recorded: significantly decreased
- Measured [AHSP], individual treated patients ([2]; Individual HC-treated SS patients P13-P22, average of 3 or 4 independent measurements ± SD, haemolysate): 1.37 ± 0.17 µg/mL and 2.16 ± 0.29 µg/mL and 1.99 ± 0.26 µg/mL and 1.32 ± 0.13 µg/mL and 1.18 ± 0.21 µg/mL and 1.29 ± 0.23 µg/mL and 1.19 ± 0.28 µg/mL and 1.34 ± 0.15 µg/mL and 1.44 ± 0.17 µg/mL and 1.69 ± 0.15 µg/mL
- Measured [AHSP], group mean ([2]; Treated SS patients (HC), n=10, mean ± SD, RBC haemolysate): 1.50 ± 0.34 µg/mL
- LDH ([3]; Treated SS patients (HC), n = 9, mean ± SD): 403.2 ± 68.09 U/L
- DRBCs (dense dehydrated RBCs, density > 1.110 g/mL) [3, 5]: 4.3% and 4.3 ± 2.54%
- Ferritin [3, 5]: 333.2 ± 206.8 µg/L
- Haematocrit [3, 5]: 28.4 ± 4.74%
- Hb [3, 5]: 9.9 ± 1.58 g/dL
- HbA2 [3, 5]: 2.04 ± 0.53%
- HbF [3, 5]: 21.51% and 21.51 ± 5.36%
- HbS [3, 5]: 76.45 ± 4.9%
- MCH [3, 5]: 39.7 ± 4.76 pg
- MCHC [3, 5]: 34.8 ± 0.79 g/dL
- MCHbF (% HbF × MCH) [3, 5]: 8.69 ± 2.81 pg
- MCHbS (% HbS × MCH) [3, 5]: 30.22 ± 2.89 pg
- MCV [3, 5]: 114.3 ± 13.43 fL
- Platelets [3, 5]: 355.8 ± 125.5 ×10^9/L
- RBC [3, 5]: 2.42 ± 0.45 ×10^12/L
- RDW [3, 5]: 17 ± 2.26%
- Reticulocytes [3, 5]: 114.7 ± 45.87 ×10^9/L
- Reticulocytes (%) [3, 5]: 4.57 ± 1.79%
- Total bilirubin [3, 5]: 28.5 ± 14.18 µmol/L
- WBC ([3]; Treated SS patients (stable HC treatment for at least one year), n=10, mean ± SD): 6.88 ± 1.46 ×10^9/L
